Key:
[1] = system: total HDAC enzyme (HeLa extract); assay: In vitro inhibition of total HDAC enzyme activity (HDAC Fluorimetric Assay/Drug Discovery Kit, BIOMOL); format: biochemical, human
Description: Measurement of in vitro inhibition of total HDAC enzyme activity:
The in vitro inhibition of total HDAC enzyme was determined by HDAC Fluorimetric Assay/Drug Discovery Kit (BIOMOL) according to manufacture's instruction. • 1. Add Assay buffer, diluted trichostatin A or test inhibitor to appropriate wells of the microtiter plate. Following table lists examples of various assay types and the additions required for each test.
• 2. Add diluted HeLa extract or other HDAC sample to all wells except those that are to be “No Enzyme Controls” (Blank). • 3. Allow diluted Fluor de LyS™ Substrate and the samples in the microtiter plate to equilibrate to assay temperature (25° C.). • 4. Initiate HDAC reactions by adding diluted substrate (25 μl) to each well and mixing thoroughly. • 5. Allow HDAC reactions to proceed for desired length of time and then stop them by addition of Fluor de Lys™ Developer (50 μl). Incubate plate at room temperature (25° C.) for 10-15 min. • 6. Read samples in a microtiter-plate reading fluorimeter capable of excitation at a wavelength in the range 350-380 nm and detection of emitted light in the range 440-460 nm.

[2] = system: lysine acetylation; assay: ELISA assay of acetylation of lysine in HeLa cells; format: cell-based; conditions: Homo sapiens, M-HeLa, 24 hours
From the text: Measurement of acetylation activity in cells on substrates:
ELISA Assay of Acetylation of Lysine
This assay is used to measure in vivo inhibition of HDAC6 in a cytoblot assay.
Materials and Reagent: • 1. 24-well tissue culture • 2. DMEM Medium containing 10% FBS • 3. 96-well white plate • 4. HeLa cell line • 5. M-PER Mammalian Protein Extraction Reagent (Pierce) • 6. Bradford assay reagent • 7. Acetylated-lysine polyclonal Antibody (Cell Signaling) • 8. HRP-labeled anti-rabbit IgG (Upstate) • 9. Coating Buffer: 15 mM Na2CO3, 35 mM NaHCO3 (pH 9.6) • 10. 10×PBS: 0.58M Na2HPO4, 0.17M NaH2PO4, 0.68M NaCl (pH 7.4) • 11. Wash Buffer:1×PBS containing 0.05% Tween-20 (PBST) • 12. Blocking Buffer:10 mg/ml bocine serum albumin (BSA) in PBS • 13. Antibody Dilution Buffer: 5 mg/ml BSA in PBST • 14. Enhanced chemiluminescence (ECL) (Amersham)
Procedure for performing the assay in 96-well plate: • 1. HeLa cells were seeded at a density of 60000 cells/500 μl/well in 24-well plate and incubated at 37° C. for 24 hours. • 2. Compounds were added and incubated for 24 hours at 37° C. • 3. Culture medium was removed, then washes the cells twice with ice-cold PBS. • 4. Add 100 μl/well of Protein Extraction Reagent and gently shake the mixture for 5 minutes. • 5. Collect the lysate to a 96-well plate respectively. Determine the concentration of protein by Bradford assay. • 6. Coat the wells of a 96-well white plate with 100 μl/well of 2.5 μg whole cell protein in Coating Buffer by incubating overnight at 4° C. • 7. Discard the uncoated proteins and wash the coated wells three times with 200 μl/well of PBST. • 8. Block coated wells by incubating the plate with 200 μl/well of Blocking Buffer for 1 hour at 37° C. • 9. Wells were aspirated and washed three times with 200 μl/well of PBST. • 10. After aspirating, 50 μl/well of Antibody Dilution Buffer containing acetylated-lysine polyclonal antibody (1:1000) were added to each well and incubated for 2 hour at 37° C. • 11. Wells were aspirated and washed three times with 200 μl/well of PBST. • 12. 50 μl/well of Antibody Dilution Buffer containing HRP-labeled anti-rabbit IgG (1:2000) were added to each well and incubated for 2 hour at 37° C. • 13. Wells were aspirated and washed three times with 200 μl/well of PBST. • 14. Wells were washed three times with 200 μl/well of purified water. • 15. Add 50 μl/well of ECL mixture, then read the plates on the plate reader.

[3] = system: HDAC4/5 (MEF2 reporter gene); assay: HDAC subtype reporter gene assay, MEF-binding element (MEF2) luciferase in HeLa cells; format: cell-based; conditions: Homo sapiens, M-HeLa, read-out: % of SAHA Response for HDAC4/5 at 10 μM (MEF2 reporter gene), 24 hours
Description: Measurement of inhibition of HDAC subtypes activity in cells by reporter gene assay: HDAC subtype selectivity inhibition assay of tested compounds was carried out by several reporter gene assays experiments. Briefly, HeLa cells were seeded in 96-well plates the day before transfection to give a confluence of 50-80%. Cells were transfected with one of reporter gene plasmids containing a promoter sequences or response elements upstream of a luciferase gene construct using FuGene6 transfection reagent according to the manufacturer's instructions (Roche). The promoters or response elements including p21-promoter, gdf11-promoter, MEF-binding element (MEF2), Nur77-promoter were fused upstream to the luciferase gene reporter construct. For normalizing the transfection efficiency, a GFP expression plasmid was cotransfected. Cells were allowed to express protein for 24 hours followed by addition of individual compounds or the vehicle (DMSO). 24 hours later, the cells were harvested and the luciferase assays were performed using the luciferase assay kit according to the manufacturer's instructions (Promega). To normalize the data from the luciferase assays, GFP activity from transfected cells was measured in a microtiter-plate reading fluorimeter capable of excitation at a wavelength at 485 nm and detection of emitted light at 527 nm.

% of Inhibition on Total HDAC Enzyme at 30 μM [1] | Structure (SMILES) | fold induction at 10 µM [2] | Emax at 10 µM [3]
−26% | Cc1[nH]c(/C=N/N=C2\C(=O)Nc3ccc(F)cc32)c(C)c1C(=O)NCCCCC(=O)Nc1ccc(F)cc1N [Example 8, 5-(5-(((5-fluoro-2-oxoindolin-3-ylidene)hydrazono)methyl)-2,4-dimethyl-1H-pyrrole-3-carboxamido)-N-(2-amino-4-fluorophenyl)pentanamide] | 2.01 | 23%
86% | Cc1[nH]c(/C=N/N=C2\C(=O)Nc3ccc(F)cc32)c(C)c1C(=O)NCCCCCC(=O)NO [Example 11, 6-(5-(((5-fluoro-2-oxoindolin-3-ylidene)hydrazono)methyl)-2,4-dimethyl-1H-pyrrole-3-carboxamido)-N-hydroxyhexanamide] | 1.87 | 27%
30% | Cc1[nH]c(/C=N/N=C2\C(=O)Nc3ccc(F)cc32)c(C)c1C(=O)NCCCCCC(=O)Nc1ccccc1N [Example 13, 6-(5-(((5-fluoro-2-oxoindolin-3-ylidene)hydrazono)methyl)-2,4-dimethyl-1H-pyrrole-3-carboxamido)-N-(2-aminophenyl)hexanamide] | 3.08 | 18%
98% | Cc1[nH]c(/C=N/N=C2\C(=O)Nc3ccc(F)cc32)c(C)c1C(=O)NCCCCCCCC(=O)NO [Example 26, 8-(5-(((5-fluoro-2-oxoindolin-3-ylidene)hydrazono)methyl)-2,4-dimethyl-1H-pyrrole-3-carboxamido)-N-hydroxyoctanamide] | 2.42 | 20%
5% | Cc1[nH]c(/C=N/N=C2\C(=O)Nc3ccc(F)cc32)c(C)c1C(=O)NCCCCCCCC(=O)Nc1ccc(F)cc1N [Example 27, 8-(5-(((5-fluoro-2-oxoindolin-3-ylidene)hydrazono)methyl)-2,4-dimethyl-1H-pyrrole-3-carboxamido)-N-(2-amino-4-fluorophenyl)octanamide] | 2.13 | 37%
20% | Nc1ccccc1NC(=O)CCCCCNC(=O)c1ccc(/C=N/N=C2\C(=O)Nc3ccc(F)cc32)cc1 [Example 32, 6-(4-(((5-fluoro-2-oxoindolin-3-ylidene)hydrazono)methyl)benzamido)-N-(2-aminophenyl)hexanamide] | 1.32 | 28%
30% | Nc1cc(F)ccc1NC(=O)CCCCCNC(=O)c1cccc(/C=C2\C(=O)Nc3ccc(F)cc32)c1 [Example 45, 6-(3-((5-fluoro-2-oxoindolin-3-ylidene)methyl)benzamido)-N-(2-amino-4-fluorophenyl)hexanamide] | 1.17 | 44%

More lines, now with the values behind:

Structure (SMILES) | % of Inhibition on Total HDAC Enzyme at 30 μM [1] | fold induction at 10 µM [2] | Emax at 10 µM [3]
Cc1[nH]c(/C=N/N=C2\C(=O)Nc3ccc(F)cc32)c(C)c1C(=O)NCCCCC(=O)Nc1ccccc1N [Example 7, 5-(5-(((5-fluoro-2-oxoindolin-3-ylidene)hydrazono)methyl)-2,4-dimethyl-1H-pyrrole-3-carboxamido)-N-(2-aminophenyl)pentanamide] | 2% | 1.58 | 23%
Cc1[nH]c(/C=N/N=C2\C(=O)Nc3ccc(F)cc32)c(C)c1C(=O)NCCCCCC(=O)Nc1ccc(F)cc1N [Example 12, 6-(5-(((5-fluoro-2-oxoindolin-3-ylidene)hydrazono)methyl)-2,4-dimethyl-1H-pyrrole-3-carboxamido)-N-(2-amino-4-fluorophenyl)hexanamide] | 14% | 1.84 | 35%
Cc1[nH]c(/C=N/N=C2\C(=O)Nc3ccc(F)cc32)c(C)c1C(=O)NCCCCCCCC(=O)Nc1ccccc1N [Example 28, 8-(5-(((5-fluoro-2-oxoindolin-3-ylidene)hydrazono)methyl)-2,4-dimethyl-1H-pyrrole-3-carboxamido)-N-(2-aminophenyl)octanamide] | 18% | 1.7 | 32%
O=C(CCCCCNC(=O)c1ccc(/C=N/N=C2\C(=O)Nc3ccc(F)cc32)cc1)NO [Example 31, 6-(4-(((5-fluoro-2-oxoindolin-3-ylidene)hydrazono)methyl)benzamido)-N-hydroxyhexanamide] | 89% | 1.67 | 30%
Nc1ccccc1NC(=O)CCCCCCCNC(=O)c1ccc(/C=N/N=C2\C(=O)Nc3ccc(F)cc32)cc1 [Example 35, 8-(4-(((5-fluoro-2-oxoindolin-3-ylidene)hydrazono)methyl)benzamido)-N-(2-aminophenyl)octanamide] | 22% | 1.04 | 46%
Nc1cc(F)ccc1NC(=O)CCCCCCCNC(=O)c1ccc(/C=N/N=C2\C(=O)Nc3ccc(F)cc32)cc1 [Example 36, 8-(4-(((5-fluoro-2-oxoindolin-3-ylidene)hydrazono)methyl)benzamido)-N-(2-amino-4-fluorophenyl)octanamide] | −16% | 1.35 | 50%
Nc1ccccc1NC(=O)CCCCCNC(=O)c1ccc(/C=C2\C(=O)Nc3ccc(F)cc32)cc1 [Example 39, 6-(4-((5-fluoro-2-oxoindolin-3-ylidene)methyl)benzamido)-N-(2-aminophenyl)hexanamide] | 31% | 1.73 | 45%
Nc1cc(F)ccc1NC(=O)CCCCCNC(=O)c1ccc(/C=C2\C(=O)Nc3ccc(F)cc32)cc1 [Example 40, 6-(4-((5-fluoro-2-oxoindolin-3-ylidene)methyl)benzamido)-N-(2-amino-4-fluorophenyl)hexanamide] | 22% | 1.5 | 56%
O=C(CCCCCNC(=O)c1ccc(/C=C2\C(=O)Nc3ccc(F)cc32)cc1)NO [Example 41, 6-(4-((5-fluoro-2-oxoindolin-3-ylidene)methyl)benzamido)-N-hydroxyhexanamide] | 96% | 1.6 | 21%
Nc1ccccc1NC(=O)CCCCCNC(=O)c1cccc(/C=C2\C(=O)Nc3ccc(F)cc32)c1 [Example 44, 6-(3-((5-fluoro-2-oxoindolin-3-ylidene)methyl)benzamido)-N-(2-aminophenyl)hexanamide] | 30% | 1.42 | 85%
